Source: the NIST ThermoML archive (doi:10.1021/je050134y)
± gives the expanded uncertainty stated by the source.

test: activity coefficient (dimensionless); of the first substance listed, at infinite dilution; xn = mol fraction of the nth substance listed; conditions: 298 K; 101.3 kPa; Liquid; Chromatography; x1 = 0

Question: With `CCCCCCCCCCC` [undecane] + CCCCCCCC[n+]1ccn(C)c1.F[B-](F)(F)F as the compound, how does the activity coefficient read?
Answer: 60.9 ± 4.2

Question: For `CCO` [ethanol] + CCCCCCCC[n+]1ccn(C)c1.F[B-](F)(F)F, which activity coefficient is on record?
Answer: 1.75 ± 0.12

Question: For `C=CCCC` [1-pentene] + CCCCCCCC[n+]1ccn(C)c1.F[B-](F)(F)F, which activity coefficient is on record?
Answer: 5.08 ± 0.35

Question: With `C=CCCCC` [hex-1-ene] + CCCCCCCC[n+]1ccn(C)c1.F[B-](F)(F)F as the compound, how does the activity coefficient read?
Answer: 7.06 ± 0.48

Question: With `C=CCCCCCCCC` [1-decene] + CCCCCCCC[n+]1ccn(C)c1.F[B-](F)(F)F as the compound, how does the activity coefficient read?
Answer: 21.4 ± 1.5

Question: Which activity coefficient does the source give for `CCCCC` [pentane] + CCCCCCCC[n+]1ccn(C)c1.F[B-](F)(F)F here?
Answer: 9.07 ± 0.62

Question: For `CCCCCO` [pentan-1-ol] + CCCCCCCC[n+]1ccn(C)c1.F[B-](F)(F)F, which activity coefficient is on record?
Answer: 2.38 ± 0.16

Question: For `CCCCO` [butan-1-ol] + CCCCCCCC[n+]1ccn(C)c1.F[B-](F)(F)F, which activity coefficient is on record?
Answer: 2.32 ± 0.16

Question: With `C=CCCCCCCCCCC` [1-dodecene] + CCCCCCCC[n+]1ccn(C)c1.F[B-](F)(F)F as the compound, how does the activity coefficient read?
Answer: 32.7 ± 2.2

Question: With `CCCCCCO` [hexan-1-ol] + CCCCCCCC[n+]1ccn(C)c1.F[B-](F)(F)F as the compound, how does the activity coefficient read?
Answer: 2.58 ± 0.18

Question: For `CCCCCC` [hexane] + CCCCCCCC[n+]1ccn(C)c1.F[B-](F)(F)F, which activity coefficient is on record?
Answer: 12.4 ± 0.8

Question: Which activity coefficient does the source give for `C=CCCCCCC` [oct-1-ene] + CCCCCCCC[n+]1ccn(C)c1.F[B-](F)(F)F here?
Answer: 13.1 ± 0.9

Question: Which activity coefficient does the source give for `CCCCCCCCCC` [decane] + CCCCCCCC[n+]1ccn(C)c1.F[B-](F)(F)F here?
Answer: 36.4 ± 2.5

Question: With `C=CCCCCCCC` [1-nonene] + CCCCCCCC[n+]1ccn(C)c1.F[B-](F)(F)F as the compound, how does the activity coefficient read?
Answer: 16.5 ± 1.1

Question: With `CCCCCCC` [heptane] + CCCCCCCC[n+]1ccn(C)c1.F[B-](F)(F)F as the compound, how does the activity coefficient read?
Answer: 16 ± 1.1

Question: Which activity coefficient does the source give for `CCCCCCCC` [octane] + CCCCCCCC[n+]1ccn(C)c1.F[B-](F)(F)F here?
Answer: 22 ± 1.5

Question: For `C=CCCCCCCCCC` [1-undecene] + CCCCCCCC[n+]1ccn(C)c1.F[B-](F)(F)F, which activity coefficient is on record?
Answer: 25.8 ± 1.8

Question: For `CO` [methanol] + CCCCCCCC[n+]1ccn(C)c1.F[B-](F)(F)F, which activity coefficient is on record?
Answer: 1.07 ± 0.07

Question: For `C=CCCCCC` [1-heptene] + CCCCCCCC[n+]1ccn(C)c1.F[B-](F)(F)F, which activity coefficient is on record?
Answer: 9.76 ± 0.67

Question: With `CCCCCCCCC` [nonane] + CCCCCCCC[n+]1ccn(C)c1.F[B-](F)(F)F as the compound, how does the activity coefficient read?
Answer: 28.4 ± 1.9

Question: Which activity coefficient does the source give for `CCCCCCCCCCCC` [dodecane] + CCCCCCCC[n+]1ccn(C)c1.F[B-](F)(F)F here?
Answer: 77.9 ± 5.3

Question: Which activity coefficient does the source give for `CCCO` [propan-1-ol] + CCCCCCCC[n+]1ccn(C)c1.F[B-](F)(F)F here?
Answer: 2.18 ± 0.15

Question: Which activity coefficient does the source give for `C1=CCCC=C1` [1,3-cyclohexadiene] + CCCCCCCC[n+]1ccn(C)c1.F[B-](F)(F)F here?
Answer: 2.69 ± 0.18
